For data set [1], the system named is patients with systolic heart failure. The following applies: cited from earlier work.
Data set [2] in a line: In vitro stability in rat plasma. It counts as in vitro ADME. Particulars: pH 7.4, 37° C.; for half-life at 5 μM: male, read-out: T1/2 (minutes) Rat. On the procedure: (§1) Certain compounds from Table 1 were tested for their stability in plasma. The assay system comprised (i) PBS, or plasma from rat, dog or human (at least 3 donors, male, pooled) at pH 7.4, and (ii) for tests conducted in plasma, an anticoagulant (sodium heparin or sodium citrate). Each test compound (5 μM) was incubated in PBS or plasma at 37° C. on a THERMOMIXER® with shaking Three samples (n=3) were taken at each of seven sampling time points: 0, 10, 30, 60, 90, 180 and 360 minutes. The samples were immediately combined with 3 volumes (i.e., 3 times the volume of PBS or plasma) of acetonitrile containing 1% formic acid and an internal standard to terminate the reaction. AB SCIEX API 3000 LC-MS/MS analysis of the test compounds was performed without a standard curve. Half-lives (T1/2) of the test compounds were determined from graphs of the percent remaining values using the peak area response ratio.

A short description of data set [3]: In vitro stability in dog plasma. It counts as in vitro ADME. The following applies: pH 7.4, 37° C.; for half-life at 5 μM: male, read-out: T1/2 (minutes) Dog. On the procedure: as §1
The nature of data set [4]: In vitro stability in human plasma. It counts as in vitro ADME. The following applies: pH 7.4, 37° C.; for half-life at 5 μM: male, read-out: T1/2 (minutes) Human. On the procedure: as §1

The structures appear in SMILES notation.

As to `CS(=O)(=O)c1ccccc1S(=O)(=O)NO` [CXL-1020, N-hydroxy-2-methanesulfonylbenzene-1-sulfonamide], the side effects result in data set [1] (at threshold doses needed to produce hemodynamic effects, intravenous) is “unacceptable levels of inflammatory irritation at and distal to the intravenous insertion site”. Further, the hemodynamic effects result in data set [1] (patients with systolic heart failure, intravenously as an aqueous solution at pH=4) was “reduced both left and right heart filling pressures and systemic vascular resistance, while increasing cardiac and stroke volume index”.

Turning to `O=S(=O)(Cc1cccc(Cl)c1)NO` [Compound 3, 1-(3-Chlorophenyl)-N-hydroxymethanesulfonamide], the melting point is 150 °C. The half-life at 5 μM in data set [2] turned out to be 40 min. In data set [3], the half-life at 5 μM worked out at 70 min. In addition, the half-life at 5 μM in data set [4] stood at 52 min.

In turn, `O=S(=O)(Cc1ccccc1Cl)NO` [Compound 4, 1-(2-Chlorophenyl)-N-hydroxymethanesulfonamide] gave a melting point of 124 °C. Moreover, in data set [2], the half-life at 5 μM was found to be 38 min. In addition, the half-life at 5 μM in data set [3] was 36 min. Also, the half-life at 5 μM in data set [4] is 28 min.

Turning to `Cc1cccc(CS(=O)(=O)NO)c1` [Compound 5, N-Hydroxy-1-(3-methylphenyl)methanesulfonamide], the melting point is 98 °C. Besides, the half-life at 5 μM in data set [2] was determined as 61 min. Further, the half-life at 5 μM in data set [3] is 55 min. For the same compound, the half-life at 5 μM in data set [4] was 81 min.

In turn, `O=S(=O)(Cc1ccc(F)cc1)NO` [Compound 6, 1-(4-Fluorophenyl)-N-hydroxymethanesulfonamide] came in with a melting point of 158 °C. Also, the half-life at 5 μM in data set [3] came to 34 min.

Turning to `O=S(=O)(Cc1ccccc1C(F)(F)F)NO` [Compound 7, N-Hydroxy-1-[2-(trifluoromethyl)phenyl]methanesulfonamide], the melting point was found to be 123 °C. In data set [3], the half-life at 5 μM was 25 min.

In turn, `O=S(=O)(Cc1ccc(F)cc1F)NO` [Compound 8, 1-(2,4-Difluorophenyl)-N-hydroxymethanesulfonamide] gave a melting point of 166 °C. Moreover, the half-life at 5 μM in data set [2] was 36 min. Further, the half-life at 5 μM in data set [3] came to 46 min. Also, the half-life at 5 μM in data set [4] was 31 min.

Consider `O=S(=O)(Cc1cc(F)ccc1F)NO` [Compound 9, 1-(2,5-Difluorophenyl)-N-hydroxymethanesulfonamide], for which the melting point came out at 125 °C. For the same compound, the half-life at 5 μM in data set [3] was found to be 30 min.

The compound `O=S(=O)(Cc1cc(Cl)ccc1Cl)NO` [Compound 10, 1-(2,5-Dichlorophenyl)-N-hydroxymethanesulfonamide] gave a melting point of 158 °C. Also, the half-life at 5 μM in data set [2] was found to be 12 min. The half-life at 5 μM in data set [3] turned out to be 27 min. Moreover, the half-life at 5 μM in data set [4] came out at 12 min.

`O=S(=O)(Cc1ccc(Cl)cc1Cl)NO` [Compound 11, 1-(2,4-Dichlorophenyl)-N-hydroxymethanesulfonamide] displayed a melting point of 158 °C. Also, in data set [3], the half-life at 5 μM is 45 min.

Take `O=S(=O)(Cc1ccc(Cl)c(Cl)c1)NO` [Compound 12, 1-(3,4-Dichlorophenyl)-N-hydroxymethanesulfonamide]: the melting point came to 175 °C. Besides, the half-life at 5 μM in data set [2] is 54 min. In addition, in data set [3], the half-life at 5 μM stood at 60 min. Besides, the half-life at 5 μM in data set [4] stood at 34 min.

Take `O=S(=O)(Cc1cccc(F)c1)NO` [Compound 13, 1-(3-Fluorophenyl)-N-hydroxymethanesulfonamide]: the melting point came out at 109 °C. Also, the half-life at 5 μM in data set [3] was determined as 42 min.

`O=S(=O)(Cc1ccccc1F)NO` [Compound 14, 1-(2-Fluorophenyl)-N-hydroxymethanesulfonamide] returned a melting point of 118 °C. The half-life at 5 μM in data set [3] is 31 min.

In turn, `O=S(=O)(Cc1cccc(Br)c1)NO` [Compound 15, 1-(3-Bromophenyl)-N-hydroxymethanesulfonamide] had a melting point of 161 °C. In addition, the half-life at 5 μM in data set [3] was 45 min.

With `O=S(=O)(Cc1ccc(Br)cc1)NO` [Compound 16, 1-(4-Bromophenyl)-N-hydroxymethanesulfonamide], the melting point is 160 °C. In addition, the half-life at 5 μM in data set [3] was 42 min.

On to `O=S(=O)(Cc1cccc(C(F)(F)F)c1)NO` [Compound 17, N-Hydroxy-1-[3-(trifluoromethyl)phenyl]methanesulfonamide], for which the melting point was determined as 132 °C. Further, the half-life at 5 μM in data set [3] was 29 min.

`O=S(=O)(Cc1ccc(C(F)(F)F)cc1)NO` [Compound 18, N-Hydroxy-1-[4-(trifluoromethyl)phenyl]methanesulfonamide] registered a melting point of 156 °C. The half-life at 5 μM in data set [2] worked out at 42 min. The half-life at 5 μM in data set [3] was found to be 74 min. Also, the half-life at 5 μM in data set [4] was determined as 33 min.

Compound `O=S(=O)(Cc1c(F)cccc1Cl)NO` [Compound 19, 1-(2-Chloro-6-fluorophenyl)-N-hydroxymethanesulfonamide] displayed a melting point of 127 °C.

Regarding `O=S(=O)(Cc1cc(F)cc(F)c1)NO` [Compound 20, 1-(3,5-Difluorophenyl)-N-hydroxymethanesulfonamide], the melting point is 136 °C. Moreover, the half-life at 5 μM in data set [3] is 33 min.

On to `O=S(=O)(Cc1c(Cl)cccc1Cl)NO` [Compound 21, 1-(2,6-Dichlorophenyl)-N-hydroxymethanesulfonamide], for which the melting point came to 140 °C.

Take `O=S(=O)(Cc1noc2ccccc12)NO` [Compound 22, 1-1,2-Benzoxazol-3-yl-N-hydroxymethanesulfonamide]: the melting point came to 143 °C. Further, the half-life at 5 μM in data set [2] amounted to 18 min. The half-life at 5 μM in data set [3] came out at 21 min. In addition, the half-life at 5 μM in data set [4] amounted to 25 min.

In turn, `O=S(=O)(Cc1ccc2oncc2c1)NO` [Compound 26, 1-(Benzo[d]isoxazol-5-yl)-N-hydroxymethanesulfonamide] had a melting point of 117 °C.

The compound `CC(c1ccc(Cl)cc1)S(=O)(=O)NO` (centres unmarked) [Compound 27, 1-(4-Chlorophenyl)-N-hydroxyethanesulfonamide] gave a melting point of 129 °C.

In the case of `CC(C)(c1ccc(Cl)cc1)S(=O)(=O)NO` [Compound 28, 2-(4-Chlorophenyl)-N-hydroxypropane-2-sulfonamide], the “T1/2 (minutes) Rat” value in data set [2] (5 μM) is 48 min. For the same compound, in data set [3] (5 μM), the “T1/2 (minutes) Dog” value came out at 26 min. Also, the “T1/2 (minutes) Human” value in data set [4] (5 μM) worked out at 37 min.

In turn, `O=S(=O)(NO)C1(c2ccc(Cl)cc2)CC1` [Compound 29, 1-(4-Chlorophenyl)-N-hydroxycyclopropane-1-sulfonamide] gave a melting point of 138 °C.

These data come from patent US9932303B2, “N-hydroxymethanesulfonamide nitroxyl donors” (Cardioxyl Pharmaceuticals, Inc., priority 2014, dated 2018).
